# According to article PMC9945734 (BMC Medicine, 2023):
# Experiments:
# [1] = test system: DU 145 (KLF5 null) cells expressing KLF5^K369Q; test: CCK-8 cell viability assay; assay type: cell-based, human; conditions: for cell number: DU 145-KQ
# Description: (§1) According to the manufacturer's instructions, cell viability was measured using a kit from Beyotime Biotechnology. Briefly, cells were seeded onto 96-well plates at 5 × 10^3 cells per well, incubated overnight, and then treated for 48 h with drugs at 0, 0.02, 0.05, 0.14, 0.41, 1.23, 3.7, 11.1, 33.3, and 100 μM. Four drugs were analyzed: furagin, nifuratel, nitazoxanide, and retapamulin. At the end of drug treatment, the medium was removed, the CCK-8 solution was added into each well at 100 μL/well and incubated for 1.5 h at 37°C, and the optical density (OD) was measured at 450 nm using a microplate reader (BioTek).
# (§2) We also tested a wider range of NTZ concentrations in PC-3-KQ and DU 145-KQ cells using the CCK-8 assay by seeding 2 × 10^3 cells and 2.5 × 10^3 cells onto each well of 96-well plates. PC-3-KQ cells were treated with NTZ at 0, 0.01, 0.1, […], 2.5, and 5 μM, while DU 145-KQ cells were treated with NTZ at 0, 0.01, 0.1, 5, 10, and 20 μM for 0, 24, 48, and 72 h. The number of viable cells was determined using the CCK-8 solution as described above.
# [2] = test system: PC-3 (KLF5 null) cells expressing KLF5^K369Q; test: CCK-8 cell viability assay; assay type: cell-based, human; conditions: for cell number: PC-3-KQ
# Description: as §1, §2
# KLF5^K369Q protein = target: T1, KLF5^K369Q protein (Homo sapiens, UniProt Q13887, K369Q); test: Fluorescence titration (quenching) of KLF5 protein; conditions: read-out: binding constant Kd
# T1 construct: made in house; host or cells: E. coli BL21 DE3
# T1 sequence (Q13887 whole entry K369Q): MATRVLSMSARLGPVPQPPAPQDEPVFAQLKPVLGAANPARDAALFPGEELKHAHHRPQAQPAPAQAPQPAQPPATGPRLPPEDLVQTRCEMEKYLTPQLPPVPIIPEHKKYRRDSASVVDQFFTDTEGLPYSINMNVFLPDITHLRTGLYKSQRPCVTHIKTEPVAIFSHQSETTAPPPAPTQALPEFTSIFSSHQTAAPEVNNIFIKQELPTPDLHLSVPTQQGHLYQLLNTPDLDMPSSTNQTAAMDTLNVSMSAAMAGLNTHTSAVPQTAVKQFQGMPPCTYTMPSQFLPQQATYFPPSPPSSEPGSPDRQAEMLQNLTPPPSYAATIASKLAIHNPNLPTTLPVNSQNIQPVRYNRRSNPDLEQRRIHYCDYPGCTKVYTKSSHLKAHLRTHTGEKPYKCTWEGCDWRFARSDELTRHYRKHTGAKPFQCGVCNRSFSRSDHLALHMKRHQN
# Description: (§3) Wild-type or mutant KLF5 protein at 1 μM in 2 mL PBS was measured for fluorescence spectrum using a fluorescence spectrometer (HORIBA, Kyoto, Japan), and the fluorescence spectra were obtained for wavelengths of 300–500 nm. NTZ with various concentration ranges and various increments were used in the analysis, including 0.1–1 μM with an increment of 0.1 μM, 1–5 μM with an increment of 0.5 μM, 5–10 μM with an increment of 1 μM, and 10–30 μM with an increment of 5 μM. The incubation with NTZ was for 5 s at room temperature. Data were processed and fitted to obtain the binding affinities using the Origin software (OriginLab, Northampton, MA, USA), and Kd values were determined by the responses at […] wavelength.
# KLF5^K369R protein = target: T2, KLF5^K369R protein (Homo sapiens, UniProt Q13887, K369R); test: Fluorescence titration (quenching) of KLF5 protein; conditions: read-out: binding constant Kd
# T2 construct: made in house; host or cells: E. coli BL21 DE3
# T2 sequence (Q13887 whole entry K369R): as the sequence (Q13887 whole entry K369Q) above, with Q369R counted along it
# Description: as §3
# DU 145-KQ cells = test: Clone formation assay; assay type: cell-based, human; conditions: 0-20 μM, 8 days
# Description: (§4) PC-3-KQ and DU 145-KQ cells were seeded onto 6-well plates at 1 × 10^3 cells/well. After incubation for 24 h, PC-3-KQ cells were treated with NTZ at 0, 1.25, 2.5, and 5 μM, while DU 145-KQ cells were treated with NTZ at 0, 5, 10, and 20 μM for 8 days. The drug-containing medium was replaced every 2 days. On the 8th day, cells were rinsed with cold PBS, fixed with 4% paraformaldehyde for 10 min, stained with purple crystal for 10 min, and photographed, and the images were analyzed using the Image J software.
# PC-3-KQ cells = test: Clone formation assay; assay type: cell-based, human; conditions: 0-5 μM, 8 days
# Description: as §4
# [3] = test system: RAW264.7 cells co-cultured with PC-3-KQ cells; test: Osteoclast differentiation in co-culture of RAW264.7 and PC-3-KQ cells; assay type: cell-based; conditions: 1.25, 2.5, 5 μM, 7 days
# Description: The third in vitro assay involved direct co-culture between RAW264.7 cells and cancer cells. RAW264.7 cells were seeded in 96-well plates at 700 cells per well and allowed to adhere for 12 h. PC-3-KQ cells were added to each well at 300 cells/well, and the culture continued for 12 h. NTZ was added to treat cells for 48 h at various final concentrations (0, 1.25, 2.5, 5 μM). The RAW264.7 medium was mixed with the PC-3 medium at 7:3, and the mixture was used to replace the culture medium every 2 days. After 7 days, the osteoclast differentiation was determined as described above.
# MMP9 = MMP9 immunohistochemical staining of bone metastases; assay type: in vivo, Balb/c nude mice; conditions: KLF5^K369Q-induced bone metastases
# Description: (§5) Immunohistochemical staining was conducted following established procedures. Briefly, 4-μm sections of bone tissues were deparaffinized in xylene and rehydrated in gradient ethanol. The endogenous antigen was retrieved by incubating slides in 10 mM sodium citrate buffer (Cat #: C1010, Solarbio, Beijing, China) overnight in an oven at 65°C. After antigen retrieving, tissue sections were incubated with 3% hydrogen peroxide at room temperature for 10 min to block the endogenous […] activity. They were then incubated in a blocking solution (0.1% albumin bovine V mixed with 10% goat serum) for 40 min, and a solution containing a primary antibody (MMP9, 1:1000, Cat #: ab76003, Abcam, Cambridge, UK; MYBL2, 1:100, Cat #: ab76009, Abcam) for 1.5 h. After rinsing with PBS for 3 times, slides were incubated with the secondary antibody solution for 15 min and then with the DAB solution using the MaxVision II HRP kit (Cat #: KIT-5920, MXB Biotechnologies, Fuzhou, China). Nuclei were counterstained with hematoxylin for 2 min. Slides were then dehydrated with gradient ethanol (75–100%) and xylene and mounted with coverslips using the quick-hardening mounting medium. All slides were scanned using an Aperio VERSA 8 Scanner System (Leica, Wetzlar, Germany) and analyzed using the Image J software (Image J 1.48v, NIH, Bethesda, MD, USA).
# MYBL2 = MYBL2 immunohistochemical staining of bone tissues; assay type: in vivo, Balb/c nude mice; conditions: treatment in mice
# Description: as §5
# [4] = by inhibiting RANKL-induced osteoclastogenesis; cited from earlier work
# [5] = lower concentrations (0–0.1 μM), 0 to 72 h
compound,measurement,setting,value
CC(=O)Oc1ccccc1C(=O)Nc1ncc([N+](=O)[O-])s1 [Nitazoxanide],cell number,[1]; higher concentrations (up to 20 μM),decreased cell number
same,cell number,[1]; [5],did not affect cell number
same,IC50,"[1]; Homo sapiens, DU 145 (KLF5 null), KLF5^K369Q, CCK-8, 48 h",22.7 ± 2.3 µM
same,IC50,"[2]; Homo sapiens, PC-3 (KLF5 null), KLF5^K369Q, CCK-8, 48 h",5.4 ± 0.5 µM
same,cell number,[2]; higher concentrations (up to 5 μM),decreased cell number
same,cell number,[2]; [5],did not affect cell number
same,Kd,KLF5^K369Q protein,5.4 µM
same,Kd,KLF5^K369R protein,7.3 µM
same,colony number,DU 145-KQ cells,reduced colony number
same,colony number,PC-3-KQ cells,reduced colony number
same,number of TRAP^+ multinucleated cells,[3],significantly decreased
same,MMP9 protein expression (IHC),MMP9,decrease of MMP9 protein expression
same,MYBL2 protein expression in bone tissues (IHC),MYBL2,significantly decreased MYBL2 protein expression
same,bone loss in ovariectomized mice,[4],reduces bone loss
